# Results: article PMC5907308, “21st Brazilian Diabetes Society Congress” (Diabetology & Metabolic Syndrome, 2018)
# Like-named read-outs stand apart in the source and are kept apart here.
# Columns and labels:
# patient with T2DM = test: Case report: endogenous hyperinsulinism in T2DM; assay type: in vivo, human; conditions: Acarbose prescribed 2 years ago; Verapamil 80 mg/day with dietary changes
# Description: patient three diagnosed with type 2 diabetes (T2DM), using insulin for 22 years. Eight years ago, they started to present frequent episodes of symptomatic hypoglycemia, preferably in fasting periods. There was no cessation of the episodes even with the suspension of all insulin and antidiabetic drugs, which lead to an investigation with a prolonged fasting test (Table 1). The test confirmed endogenous hyperinsulinism (EH). […] They were then submitted to a selective arterial calcium stimulation test (SACST), whose results excluded insulinoma. […] Verapamil (80 mg/day) was initiated along with dietary changes, with good response.
# [1] = tested on: patients after Roux-en-Y gastric bypass; test: Postprandial hyperinsulinemic hypoglycemia after RYGB, case series; assay type: in vivo, human
# Description: Cases report: Case (1) A person developed postprandial hypoglycemic episodes 6 years after Roux-en-Y gastric bypass (RYGB). A mixed meal tolerance test (MMTT, 500 kcal, 20% protein, 20% fat and 60% carbohydrates) was performed, leading to symptomatic postprandial hyperinsulinemic hypoglycemia (PHH) with a nadir of 45 mg/dL at 120 min (insulin of 8 mU/L; C-peptide of 3.21 ng/mL). […] Cases 2 and 3). Two […] women presented hypoglycemia following meals 3 and 5 years after RYGB. MMTT (120 min): glycemia of 34 mg/dL, insulin of 17 mU/L and C-peptide of 6.23 ng/mL and, in the second one, glycemia of 52 mg/dL, insulin of 9 mU/L and C-peptide of 2.7 ng/mL. PT and MRCP were normal in both cases. […] Case 4). A person who underwent RYGB 1.5 years ago reported hypoglycemic episodes in the last 6 months. MMTT: glycemia of 26 mg/dL at 150 min, insulin of 34 mU/L and C-peptide of 6.03 ng/mL. […] They were submitted to distal pancreatectomy and symptoms disappeared after diazoxid and hydrochlorothiazide. Case 5). A person developed hypoglycemia 10 years after RYGB. […] MMTT: glycemia of 43 mg/dL at 120 min, insulin of 100 mU/L and C-peptide of 1.95 ng/mL. […] Antiinsulin antibodies were negative in all cases (Table 1).
# [2] = tested on: hypothalamus of young rats; test: Chronic ICV treatment with the nitric oxide donor GSNO; assay type: in vivo, rat
# T2DM patients = conditions: monotherapy; systematic review and mixed treatment meta-analyses comparison of RCTs; cited from earlier work
# Description: Results: All DPP4 presented a statistically significant change of HbA1c from baseline compared to placebo (alogliptin − 0.797 (95%CI − 0.943 to − 0.651); linagliptin − 0.734 (CI − 0.88 to − 0.588); saxagliptin − 0.593 (CI − 0.811 to − 0.375); sitagliptin -0.788 (CI − 0.954 to − 0.622); vildagliptin −0.60 (CI − 0.80 to − 0.40)). Based on drug acquisition costs, alogliptin monotherapy presented the lowest annual treatment costs and the lowest cost for every 1% HbA1c reduction followed by saxagliptin, linagliptin, sitagliptin and vildagliptin (Table 1).
# patients with T1DM = test: High dose vitamin D for 12 weeks, DKD/albuminuria pilot study; assay type: in vivo, human
# Description: Methods: 22 patients received doses of 4000 and 10000 IU/day of cholecalciferol for 12 weeks according to patient’s previous VD levels. They were submitted to continuous glucose monitoring system (CGMS), 24-h ABPM and urine albumin-to-creatinine ratio (UACR) before and after VD supplementation.
# male Wistar rats = assay type: in vivo, rat
# Description: In addition, experimental studies of effects of different doses are important in assessing the safety of a drug. The objective was to evaluate the lipid biomarkers in rats treated with several doses of prednisone. […] The treatment was daily for of 21 days, with weekly measures of body weight, food consumption and calories ingested on days 0, 8 and 16 of treatment. On the last day, the caloric gain was evaluated and then the rats were anesthetized and killed by decapitation to collect the whole blood for serum biochemical analyzes. All data were statistically evaluated with significance of 5%.
# [3] = tested on: patients submitted to liver transplantation; assay type: in vivo, human; conditions: Tacrolimus 95% CI 1.2–32.5, p = 0.029; PDN 95% CI 2.4–21, 8, p < 0.001
# Description: A total of 152 patients were included. […] Comparisons were done with Chi square tests and analysis of independent risk factors with multivariate logistic regression.
# [4] = tested on: Normoglycemic adult Wistar rats; conditions: for TOTG glycemia, 120 min: CONT 93.7 ± 4.1
# Description: The side effects are primarily determined by dosage and time of use. The objective was to evaluate the effects of increasing doses of PRD on the action of endogenous insulin in Wistar rats. Normoglycemic adult rats weighing 450–510 g were divided into 5 groups, differentiated by their daily treatment (18 days) orally, as the PRD dose used [CONT, PRD1 (0.625 mg/kg), PDR2 (1.250 mg/kg), PRD3 (2.500 mg/kg) and PRD4 ([…])]. Rats received water and food ad libitum, and on 0, 8 and 16 days of treatment the fasting glycemia was measured. On the 17th day, the oral glucose tolerance test (TOTG) was performed, collecting blood for glucose levels at fasting times (− 1 min) and 30, 60 and 120 min after administration of glucose solution. […] The data were statistically analyzed with significance of 5%.
# [5] = tested on: male rats with mild diabetes (neonatal streptozotocin); assay type: in vivo, rat
# Description: Background: The prednisone (PRD) is a glucocorticoid that may lead to the development of temporary hyperglycemia. […] The objective was to evaluate the effects of PRD in mild diabetic rats by biochemical and immunological biomarkers. […] The rats were separated into 4 groups: control (C), treated control C + PRD (oral treatment of 1.25 mg/kg/day PRD); diabetic DM (mild diabetes) and treated diabetic DM + PRD (mild diabetes, treatment with same dose as C + PRD group). Untreated groups received vehicle, adjusted volume according to body weight. The treatment daily for 21 days and it were weekly measured the body weight, food and water intake, and glycemia. In the 3rd week of treatment, the oral glucose tolerance test (OGTT) and insulin tolerance test (TTI) were performed, area under the glycemic curve (ASC) values were calculated. In the 21st day, the rats were killed and the blood was collected for serum biochemical, leukogram and immunoglobulin G determinations. All data was statistically evaluated with 5% significance.
# patient with DM2 and PAH = test: Vildagliptin in T2DM with pulmonary arterial hypertension, case report; assay type: in vivo, human
# Description: The main etiology of pulmonary arterial hypertension (PAH) is idiopathic. In more than one-third of these cases, patients have criteria for metabolic syndrome. Alone, obesity, dyslipidemia and type 2 diabetes mellitus (T2DM) have a direct and indirect relationship in the pathophysiology of PAH. The presence of glucagon-like peptide-1 (GLP1) receptors in different organs of our body gives this incretin several pleiotropic effects, in addition to its already well established role in the treatment of obesity and T2DM. […] Considering this and using a weight-neutral incretin-based therapy, we opted for the use of a DPP4 inhibitor (vildagliptin 50 mg 2×/day) to increase GLP1 levels in a patient with DM2, hypertension, dyslipidemia, obesity grade I (BMI of 30.2 kg/m2) and PAH.
# [6] = tested on: patient with metastatic melanoma; test: Ipilimumab endocrinological side effects, case report; assay type: in vivo, human
# Description: In the last couple of years, monoclonal antibodies have emerged as effective therapies for advanced neoplasms. […] CTLA-4 is expressed on the surface of T lymphocytes and transmits an inhibitory signal through its B7-1/2 linker. In blocking the CTLA-4, Ipilimumab promotes an enhancement of T cell activation against neoplasms. During the treatment, the activation of these cells can also be directed to different organs/tissues and affect the skin (dermatitis), gastrointestinal tract (colitis, pancreatitis, hepatitis), lung (pneumonitis) and endocrine glands (thyroiditis, hypophysitis, adrenalitis). […] The patient is a person previously healthy, with a diagnosis of metastatic melanoma. They were subjected to surgical removal of the skin lesion and infraclavicular lymph node, in addition to adjuvant treatment with Ipilimumab. They performed four cycles of this medication and evolved with asthenia, headache, abdominal pain and hyperglycemia, about 3 weeks after the last cycle. They were hospitalized and during the medical investigation the following were detected: low ACTH, low cortisol and hyperprolactinemia—characterizing hypophysitis. Furthermore, there was an elevation of amylase and lipase and hyperglycemia, with levels above 400 mg/dL, requiring insulinization. […]
# [7] = 0.625 mg/kg daily orally (PRD1)
# [8] = 1.250 mg/kg daily orally (PRD2)
compound,measurement,setting,value
C[C@H]1O[C@H](O[C@H]2[C@H](O)[C@@H](O)[C@@H](O[C@H]3[C@H](O)[C@@H](O)C(O)O[C@@H]3CO)O[C@@H]2CO)[C@H](O)[C@@H](O)[C@@H]1N[C@H]1C=C(CO)[C@@H](O)[C@H](O)[C@H]1O (some centres unmarked) [Acarbose],response of hypoglycemia episodes,patient with T2DM,no improvement
same,clinical response of postprandial hypoglycemia,[1]; Case 5,controlled their symptoms
same,clinical response of postprandial hypoglycemia,[1]; Cases 2 and 3,Improvement occurred
N[C@@H](CCC(=O)N[C@@H](CSN=O)C(=O)NCC(=O)O)C(=O)O [GSNO],S-nitrosation of insulin signalling proteins in the hypothalamus,[2],enhance S-NO of IRβ and Akt
same,food intake and body weight,[2],increased food intake and body weight
"N[C@@H](CC(=O)N1CCn2c(nnc2C(F)(F)F)C1)Cc1cc(F)c(F)cc1F [Sitagliptin, sitagliptin]",change of HbA1c from baseline compared to placebo,T2DM patients,-0.788
"C=C1CC[C@H](O)C/C1=C/C=C1\CCC[C@]2(C)[C@@H]([C@H](C)CCCC(C)C)CC[C@@H]12 [VD, cholecalciferol]",patients with DKD at the beginning whose DKD stage improved,"patients with T1DM; 8/13 patients, 12 weeks",62%
same,DKD prevalence at the end of the study,"patients with T1DM; cholecalciferol 4000 or 10000 IU/day for 12 weeks, n = 22, 68% before",32%
COc1ccc(CCN(C)CCCC(C#N)(c2ccc(OC)c(OC)c2)C(C)C)cc1OC (centres unmarked) [Verapamil],response of hypoglycemia episodes,patient with T2DM,good response
C[C@]12C=CC(=O)C=C1CC[C@@H]1[C@@H]2C(=O)C[C@@]2(C)[C@H]1CC[C@]2(O)C(=O)CO [prednisone],"calories ingested, 16th day of treatment","male Wistar rats; 5.0 mg/Kg daily (PRD2), n = 7",93.2 ± 20.4 kcal/day
same,"calories ingested, day 0","male Wistar rats; 5.0 mg/Kg daily (PRD2), n = 7",63.7 ± 12.3 kcal/day
same,"calories ingested, day 8 of treatment","male Wistar rats; 5.0 mg/Kg daily (PRD2), n = 7",69.0 ± 18.1 kcal/day
same,"body weight, dietary intake, serum triglyceride, total cholesterol, VLDL, LDL, non-HDL cholesterol","male Wistar rats; 2.5 and 5.0 mg/Kg, 21 days, p > 0.05",no differences
same,"independent risk factor for PTDM, OR",[3],7.2
same,"TOTG glycemia, time -1 min","[4]; 0.625 mg/kg (PRD1), day 17, CONT 87.7 ± 5.7",106 ± 5.8 mg/dL
same,"TOTG glycemia, 120 min",[4]; 0.625 mg/kg (PRD1),122.8 ± 15.7 mg/dL
same,"fasting glycemic increase compared to CONT, day 8",[4]; [7],30%
same,"fasting glycemic increase compared to CONT, day 16",[4]; [7],20%
same,"glycemia increase of PRD1 compared to PRD4, day 16",[4]; 0.625 mg/kg vs PRD4,16%
same,"TOTG glycemia, 120 min",[4]; 1.250 mg/kg (PRD2),120.6 ± 11.6 mg/dL
same,"fasting glycemic increase compared to CONT, day 8",[4]; [8],27%
same,"fasting glycemic increase compared to CONT, day 16",[4]; [8],9%
same,"ASCp, increased glycemic load vs CONT, interval 30–60 min",[4]; PRD4,36%
same,"glycemia increasing vs C group, all weeks of treatment","[5]; DM + PRD, 1.25 mg/kg/day",51%
same,"lymphocytes, increase vs C group","[5]; DM + PRD, day 21",19%
same,"neutrophils, increase vs C group","[5]; DM + PRD, day 21",200%
same,"total leukocytes, increase vs C group","[5]; DM + PRD, day 21",30%
same,"food intake increasing vs C group, 2nd and 3rd week","[5]; DM + PRD, oral 1.25 mg/kg/day",18%
same,"high-density lipoprotein, decrease vs C group","[5]; DM + PRD, serum",8%
same,"triglycerides, decrease vs C group","[5]; DM + PRD, serum",21%
same,"very low-density lipoproteins, decrease vs C group","[5]; DM + PRD, serum",10%
same,"OGTT glycemia, 30 min","[5]; DM + PRED group, 3rd week",275 mg/dL
same,"OGTT glycemia, 60 min","[5]; DM + PRED group, 3rd week",258 mg/dL
same,"OGTT glycemia, 120 min","[5]; DM + PRED group, 3rd week",161 mg/dL
same,"body weight decrease, all measures",[5]; DM and DM + PRD groups,about 27%
N#C[C@@H]1CCCN1C(=O)CNC12CC3CC(CC(O)(C3)C1)C2 [vildagliptin],right ventricular systolic pressure (RVSP),"patient with DM2 and PAH; 50 mg 2×/day, 6 months after its use, 45 mmHg before",38 mmHg
same,fasting glycemia,patient with DM2 and PAH; 6 months after its use,111 mg/dL
same,A1c,"patient with DM2 and PAH; 6 months after its use, without episodes of hypoglycemia",6.0%
same,A1c,patient with DM2 and PAH; January/2017,6.5%
same,fasting glycemia,patient with DM2 and PAH; January/2017,112 mg/dL
same,RVSP,"patient with DM2 and PAH; January/2017, 3 years of follow up",31 mmHg
same,change of HbA1c from baseline compared to placebo,T2DM patients,−0.60
Ipilimumab,endocrinological side effects,"[6]; four cycles, adjuvant treatment, about 3 weeks after the last cycle","hypophysitis and pancreatitis, in addition to secondary diabetes"
same,"hyperglycemia, levels",[6]; requiring insulinization,above 400 mg/dL
